Laboratory results: publication PMC7311426, “An amphipathic peptide with antibiotic activity against multidrug-resistant Gram-negative bacteria” (Nature Communications, 2020)
Values after ≈ are worked out from the molar mass of the structure shown. Read-outs that look alike come from different tables or passages of the source. Residues, ends and D or L forms follow the SMILES beside them.

Experiments:
[1] = system: B. subtilis; test: microbe, parasite or virus in culture; details: for MIC: Bacillus subtilis
In short: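 Broth microdilution in MHB, 2-fold 12-point series from 128 or 64 down to 0.06 or 0.03 μg mL^−1, 5 × 10^5 CFU mL^−1. Extra runs in CAMHB per CLSI and in MHB with 1% agarose; n ≥ 6.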

[2] = system: E. coli ATCC 25922; test: microbe, parasite or virus in culture; format: cell-based, Escherichia coli; set-up: MIC, Survanta (5%) replicates: unit not given beside the values; details: for MIC, Survanta (5%) replicates: BMD with 5% Survanta lung surfactant
In short: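 Broth microdilution MIC in Mueller Hinton broth, 12-point 2-fold series from 128 or 64 down to 0.06 or 0.03 μg mL^−1, 5 × 10^5 CFU mL^−1 inoculum. Read visually after 18-20 h at 37 °C without shaking; n ≥ 6. Additional tests in CAMHB, and in MHB with 1% agarose.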

[3] = system: P. aeruginosa; test: microbe, parasite or virus in culture; format: cell-based, Pseudomonas aeruginosa; set-up: MIC, Survanta (5%) replicates: unit not given beside the values
[4] = system: A. baumannii ATCC 19636; test: microbe, parasite or virus in culture; format: cell-based, Acinetobacter baumannii
[5] = system: E. coli ATCC 25922; format: cell-based, Escherichia coli
[6] = P. aeruginosa FADDI-070 MDR, PmxR, n=2 to 6, mode or median
[7] = A. baumannii ATCC 19636 type strain, n=2 to 6, mode or median
[8] = P. aeruginosa ATCC 27853 control strain, n=2 to 6, mode or median

## CC(C)[C@@H]1NC(=O)[C@H](Cc2ccc(O)cc2)NC(=O)[C@H](Cc2c[nH]c3ccccc23)NC(=O)[C@@H](NC(=O)[C@H](Cc2ccccc2)NC(=O)CN)CSSC[C@@H](C(=O)N[C@@H](CC(N)=O)C(=O)O)NC(=O)[C@H](CCCNC(=N)N)NC(=O)[C@H](CCCNC(=N)N)NC(=O)[C@H](Cc2ccc(O)cc2)NC(=O)[C@@H]2CSSC[C@H](NC1=O)C(=O)N[C@@H](C)C(=O)N[C@@H](CCCNC(=N)N)C(=O)N[C@@H](CCCNC(=N)N)C(=O)N[C@@H](CC(N)=O)C(=O)NCC(=O)N[C@@H](C)C(=O)N[C@@H](CCCNC(=N)N)C(=O)N[C@@H](C(C)C)C(=O)N2 [AA139] (HELM PEPTIDE1{G.F.C.W.Y.V.C.A.R.R.N.G.A.R.V.C.Y.R.R.C.N}$PEPTIDE1,PEPTIDE1,3:R3-20:R3|PEPTIDE1,PEPTIDE1,7:R3-16:R3$$$V2.0)
[1]
  BMD MIC: 2 µg/mL
[2]; ATCC 25922
  MIC, MHB: 0.125 µg/mL (≈ 0.049 µM)
[3]; [6]
  MIC, Serum (50%): 8 µg/mL (≈ 3.14 µM)
  MIC, Survanta (5%): 8 µg/mL (≈ 3.14 µM)

## colistin
[2]; E. coli ATCC 25922, FDA control strain, replicate 1
  MIC, Survanta (5%) replicates: 0.06
[2]; E. coli ATCC 25922, FDA control strain, replicate 2
  MIC, Survanta (5%) replicates: 0.06
[2]; E. coli ATCC 25922, FDA control strain, replicate 3
  MIC, Survanta (5%) replicates: ≤0.03
[2]; E. coli ATCC 25922, FDA control strain, replicate 4
  MIC, Survanta (5%) replicates: ≤0.03
[2]; E. coli ATCC 25922, FDA control strain, BMD with 50% human serum, mode, or median where no mode, n=4 to 6, where n=2 differs the higher value
  MIC, Serum (50%): ≤0.03
[2]; E. coli ATCC 25922, FDA control strain, BMD with 50% human serum, replicate 1
  MIC, Serum (50%) replicates: ≤0.03
[2]; E. coli ATCC 25922, FDA control strain, BMD with 50% human serum, replicate 2
  MIC, Serum (50%) replicates: ≤0.03
[2]; E. coli ATCC 25922, FDA control strain, BMD with 50% human serum, replicate 3
  MIC, Serum (50%) replicates: 0.125
[2]; E. coli ATCC 25922, FDA control strain, BMD with 50% human serum, replicate 4
  MIC, Serum (50%) replicates: 0.063
[2]; E. coli ATCC 25922, FDA control strain, BMD with 50% human serum, replicate 5
  MIC, Serum (50%) replicates: ≤0.03
[2]; E. coli ATCC 25922, FDA control strain, BMD with 50% human serum, replicate 6
  MIC, Serum (50%) replicates: ≤0.03
[2]; E. coli ATCC 25922, MHB + 50% (v/v) human serum, n=2 to 6, mode or median
  MIC, Serum (50%): ≤ 0.03 µg/mL
[4]; A. baumannii ATCC 19636, type strain, BMD with 5% Survanta lung surfactant, mode, or median where no mode, n=4 to 6, where n=2 differs the higher value
  MIC, Survanta (5%): 0.125
[4]; A. baumannii ATCC 19636, type strain, BMD with 5% Survanta lung surfactant, replicate 1
  MIC, Survanta (5%) replicates: 0.5
[4]; A. baumannii ATCC 19636, type strain, BMD with 5% Survanta lung surfactant, replicate 2
  MIC, Survanta (5%) replicates: 0.25
[4]; A. baumannii ATCC 19636, type strain, BMD with 5% Survanta lung surfactant, replicate 3
  MIC, Survanta (5%) replicates: 0.06
[4]; A. baumannii ATCC 19636, type strain, BMD with 5% Survanta lung surfactant, replicate 4
  MIC, Survanta (5%) replicates: 0.06
[4]; A. baumannii ATCC 19636, type strain, BMD with 50% human serum, mode, or median where no mode, n=4 to 6, where n=2 differs the higher value
  MIC, Serum (50%): ≤0.031
[4]; A. baumannii ATCC 19636, type strain, BMD with 50% human serum, replicate 1
  MIC, Serum (50%) replicates: ≤0.031
[4]; A. baumannii ATCC 19636, type strain, BMD with 50% human serum, replicate 2
  MIC, Serum (50%) replicates: ≤0.031
[4]; A. baumannii ATCC 19636, type strain, BMD with 50% human serum, replicate 3
  MIC, Serum (50%) replicates: ≤0.031
[4]; A. baumannii ATCC 19636, type strain, BMD with 50% human serum, replicate 4
  MIC, Serum (50%) replicates: ≤0.031
[4]; [7]
  MIC, Serum (50%): ≤ 0.031 µg/mL
  MIC, Survanta (5%): 0.125 µg/mL
[3]; P. aeruginosa ATCC 27853, control strain, BMD with 5% Survanta lung surfactant, mode, or median where no mode, n=4 to 6, where n=2 differs the higher value
  MIC, Survanta (5%): 0.25
[3]; P. aeruginosa ATCC 27853, control strain, BMD with 5% Survanta lung surfactant, replicate 1
  MIC, Survanta (5%) replicates: 0.5
[3]; P. aeruginosa ATCC 27853, control strain, BMD with 5% Survanta lung surfactant, replicate 2
  MIC, Survanta (5%) replicates: 0.5
[3]; P. aeruginosa ATCC 27853, control strain, BMD with 5% Survanta lung surfactant, replicate 3
  MIC, Survanta (5%) replicates: 0.125
[3]; P. aeruginosa ATCC 27853, control strain, BMD with 5% Survanta lung surfactant, replicate 4
  MIC, Survanta (5%) replicates: 0.125
[3]; P. aeruginosa ATCC 27853, control strain, BMD with 50% human serum, mode, or median where no mode, n=4 to 6, where n=2 differs the higher value
  MIC, Serum (50%): 0.25
[3]; P. aeruginosa ATCC 27853, control strain, BMD with 50% human serum, replicate 1
  MIC, Serum (50%) replicates: 0.5
[3]; P. aeruginosa ATCC 27853, control strain, BMD with 50% human serum, replicate 2
  MIC, Serum (50%) replicates: 0.5
[3]; P. aeruginosa ATCC 27853, control strain, BMD with 50% human serum, replicate 3
  MIC, Serum (50%) replicates: 0.25
[3]; P. aeruginosa ATCC 27853, control strain, BMD with 50% human serum, replicate 4
  MIC, Serum (50%) replicates: 0.25
[3]; P. aeruginosa ATCC 27853, control strain, BMD with 50% human serum, replicate 5
  MIC, Serum (50%) replicates: 0.125
[3]; P. aeruginosa ATCC 27853, control strain, BMD with 50% human serum, replicate 6
  MIC, Serum (50%) replicates: 0.125
[3]; [8]
  MIC, Serum (50%): 0.25 µg/mL
  MIC, Survanta (5%): 0.25 µg/mL
[3]; P. aeruginosa FADDI-070, MDR, PmxR, BMD with 5% Survanta lung surfactant, mode, or median where no mode, n=4 to 6, where n=2 differs the higher value
  MIC, Survanta (5%): ≥64
[3]; P. aeruginosa FADDI-070, MDR, PmxR, BMD with 5% Survanta lung surfactant, replicate 1
  MIC, Survanta (5%) replicates: 64
[3]; P. aeruginosa FADDI-070, MDR, PmxR, BMD with 5% Survanta lung surfactant, replicate 2
  MIC, Survanta (5%) replicates: 64
[3]; P. aeruginosa FADDI-070, MDR, PmxR, BMD with 5% Survanta lung surfactant, replicate 3
  MIC, Survanta (5%) replicates: >64
[3]; P. aeruginosa FADDI-070, MDR, PmxR, BMD with 5% Survanta lung surfactant, replicate 4
  MIC, Survanta (5%) replicates: >64
[3]; P. aeruginosa FADDI-070, MDR, PmxR, BMD with 50% human serum, replicate 1
  MIC, Serum (50%) replicates: 0.25
[3]; P. aeruginosa FADDI-070, MDR, PmxR, BMD with 50% human serum, replicate 2
  MIC, Serum (50%) replicates: 0.125
[3]; P. aeruginosa FADDI-070, MDR, PmxR, BMD with 50% human serum, where n=2 differs the higher value is recorded
  MIC, Serum (50%): 0.25
[3]; [6]
  MIC, Serum (50%): 0.25 µg/mL
  MIC, Survanta (5%): ≥ 64 µg/mL
[5]; E. coli ATCC 25922, FDA control strain, BMD with 5% Survanta lung surfactant, mode, or median where no mode, n=4 to 6, where n=2 differs the higher value
  MIC, Survanta (5%): ≤0.06
[5]; E. coli ATCC 25922, MHB + 5% (v/v) lung surfactant, n=2 to 6, mode or median
  MIC, Survanta (5%): ≤ 0.06 µg/mL

## CNC(C)C1CCC(N)C(OC2C(N)CC(N)C(OC3OCC(C)(O)C(NC)C3O)C2O)O1 (centres unmarked) [Gentamicin, gentamicin, reference compound]
[1]; ATCC6051 / NRS744, read-out: BMD MIC
  MIC: 0.25 µg/mL (≈ 0.523 µM)
[1]; ATCC6633 / NRS231, read-out: BMD MIC
  MIC: 0.5 µg/mL (≈ 1.05 µM)
